Source: patent publication US10080751B2, “Systems and methods for treating bacterial infection” (priority 2016, dated 2018)
Where two headings read alike, the source gives them in different places.

Key:
[1] = system: M. catarrhalis; assay: MIC with/without bovine pulmonary surfactant, M. catarrhalis; format: cell-based, Moraxella catarrhalis; settings: for MICRZ, Resazurin: +BPS: 2.5% v/v BPS; for MICRZ, Resazurin / MIC: no BPS; for MIC: Moraxella catarrhalis
Protocol: (§1) Clinical isolates were identified by the submitting laboratories and confirmed by JMI Laboratories using standard bacteriologic algorithms and methodologies, including Matrix-Assisted Laser Desorption Ionization-Time Of Flight Mass Spectrometry (MALDI-TOF MS). When necessary, MALDI-TOF MS was performed using the Bruker Daltonics MALDI Biotyper (Billerica, Mass., USA), following manufacturer's instructions. Isolates selected were bacterial species commonly associated with pneumonia. […] 2.2 Susceptibility testing
(§2) Antibacterial susceptibility testing was measured by JMI Labs (North Liberty, Iowa, USA). […] These clinical isolates were collected from US (n=4), Mexico (n=2), and Italy (n=1). Susceptibility testing was performed by broth microdilution in accordance with the Clinical and Laboratory and Standards Institute (CLSI) guidelines M07-A10 (2015) and the standard operating procedures at JMI laboratories. Minimum inhibitory concentrations (MICs) were based on CLSI criteria (2015). There are no published breakpoints for iclaprim. E. coli, K. pneumoniae, M. catarrhalis, E. faecalis, and S. aureus were tested in cation-adjusted Mueller-Hinton broth (CA-MHB). S. pneumoniae were tested in CA-MHB supplemented with 2.5-5% lysed horse blood, and H. influenza were tested in Haemophilus test medium. Quality control and interpretation of results were performed in accordance with CLSI M100-S26 (2016) methods. QC ranges for iclaprim were those approved by CLSI and published in M100-S26 (2016). Iclaprim and comparator antibiotic MIC results were within the CLSI published ranges against E. coli ATCC 25922, E. faecalis ATCC 29212, E. faecalis ATCC 33186, H. influenzae ATCC 49247, K. pneumoniae ATCC 700603 (ESBL phenotype), S. aureus ATCC 29213, and S. pneumoniae ATCC 49619. Isolates were tested with MIC panels (ThermoFisher Scientific, Cleveland, Ohio, USA) of comparator antibiotics (daptomycin and levofloxacin).
(§3) Because bovine pulmonary surfactant can introduce cloudiness to the MIC testing media, antimicrobial growth inhibition was also evaluated using the colorimetric metabolic indicator resazurin (Camlab Ltd., Cambridge, UK). […] S. pneumoniae panels were omitted from resazurin analysis because the color change was obscured by the lysed horse blood present in the test medium. Growth inhibition was then evaluated as a visible color change from blue (no growth) to pink (robust growth) and recorded as a MICRZ value.
(§4) The MICs of iclaprim, levofloxacin, and daptomycin were determined against Gram-positive and Gram-negative isolates.
(§5) A new vial of bovine pulmonary surfactant (BPS; Survanta®; Abbott Laboratories, Columbus, Ohio) was utilized for each independent experiment. Each vial was mixed thoroughly and a 100 μL aliquot was spread on an agar plate, which was incubated overnight to confirm sterility. […] The concentration of surfactant was expressed in terms of percent volume of Survanta® suspension, which consisted of phospholipid (25 mg/mL) and surfactant proteins (<1 mg/mL) in 0.9% sodium chloride solution (Goerke, 1998). MICs of daptomycin were determined in CAMHB with the Ca^2+ content adjusted to 50 mg/L.

[2] = system: S. aureus; assay: MIC with/without bovine pulmonary surfactant, S. aureus; format: cell-based, Staphylococcus aureus; settings: for MICRZ, Resazurin: +BPS: 2.5% v/v BPS; for MICRZ, Resazurin: no BPS
Protocol: as §1, §2, §3, §4, §5

[3] = system: E. faecalis; assay: MIC with/without bovine pulmonary surfactant, E. faecalis; format: cell-based, Enterococcus faecalis; settings: for MIC: Enterococcus faecalis
Protocol: as §1, §2, §3, §4, §5

[4] = system: S. pneumoniae; assay: MIC with/without bovine pulmonary surfactant, S. pneumoniae; format: cell-based; settings: Streptococcus pneumoniae
Protocol: as §1, §2, §3, §4, §5

[5] = system: H. influenzae; assay: MIC with/without bovine pulmonary surfactant, H. influenzae; format: cell-based, Haemophilus influenzae; settings: for MIC: Haemophilus influenzae
Protocol: as §1, §2, §3, §4, §5

[6] = system: K. pneumoniae; assay: MIC with/without bovine pulmonary surfactant, K. pneumoniae; format: cell-based, Klebsiella pneumoniae; settings: for MIC: Klebsiella pneumoniae
Protocol: as §1, §2, §3, §4, §5

[7] = system: E. coli; assay: MIC with/without bovine pulmonary surfactant, E. coli; format: cell-based, Escherichia coli; settings: E. coli ATCC 25922
Protocol: as §1, §2, §3, §4
A new vial of bovine pulmonary surfactant (BPS; Survanta®; Abbott Laboratories, Columbus, Ohio) was utilized for each independent experiment. […] MICs of daptomycin were determined in CAMHB with the Ca^2+ content adjusted to 50 mg/L.

[8] = system: common Gram-positive and Gram-negative respiratory bacteria; assay: Pulmonary surfactant interaction, overall effect on MIC and MICRZ; format: cell-based; settings: respiratory Gram-positive strains and clinical isolates; read-out: MIC and MICRZ in the presence of 2.5% BPS
Protocol: Antibacterial susceptibility testing was measured by JMI Labs (North Liberty, Iowa, USA). […] These clinical isolates were collected from US (n=4), Mexico (n=2), and Italy (n=1). Susceptibility testing was performed by broth microdilution in accordance with the Clinical and Laboratory and Standards Institute (CLSI) guidelines M07-A10 (2015) and the standard operating procedures at JMI laboratories. Minimum inhibitory concentrations (MICs) were based on CLSI criteria (2015). There are no published breakpoints for iclaprim. E. coli, K. pneumoniae, M. catarrhalis, E. faecalis, and S. aureus were tested in cation-adjusted Mueller-Hinton broth (CA-MHB). […]
Because bovine pulmonary surfactant can introduce cloudiness to the MIC testing media, antimicrobial growth inhibition was also evaluated using the colorimetric metabolic indicator resazurin (Camlab Ltd., Cambridge, UK). […] Growth inhibition was then evaluated as a visible color change from blue (no growth) to pink (robust growth) and recorded as a MICRZ value.
as §4
A new vial of bovine pulmonary surfactant (BPS; Survanta®; Abbott Laboratories, Columbus, Ohio) was utilized for each independent experiment. […] MICs of daptomycin were determined in CAMHB with the Ca^2+ content adjusted to 50 mg/L. […]

[9] = M. catarrhalis Clinical Isolate 893806
[10] = M. catarrhalis Clinical Isolate 893807
[11] = S. aureus Clinical Isolate 825189
[12] = E. faecalis ATCC 29212, 2.5% v/v BPS
[13] = E. faecalis ATCC 33186, 2.5% v/v BPS
[14] = ATCC29212, E. faecalis ATCC 29212, no BPS, read-out: MIC, CLSI
[15] = ATCC33186, E. faecalis ATCC 33186, no BPS, read-out: MIC, CLSI
[16] = ATCC49619, S. pneumoniae ATCC 49619, 2.5% v/v BPS, read-out: MIC, CLSI: +BPS
[17] = ATCC49619, S. pneumoniae ATCC 49619, no BPS, read-out: MIC, CLSI
[18] = S. pneumoniae Clinical Isolate 818757, 2.5% v/v BPS, read-out: MIC, CLSI: +BPS
[19] = S. pneumoniae Clinical Isolate 818757, no BPS, read-out: MIC, CLSI
[20] = S. pneumoniae Clinical Isolate 825175, 2.5% v/v BPS, read-out: MIC, CLSI: +BPS
[21] = S. pneumoniae Clinical Isolate 825175, no BPS, read-out: MIC, CLSI

C[C@H]1COc2c(N3CCN(C)CC3)c(F)cc3c(=O)c(C(=O)O)cn1c23 [Levofloxacin]
0.25 µg/mL: MICRZ, Resazurin ([2]; S. aureus ATCC 29213) | MICRZ, Resazurin: +BPS [2, 11] | MICRZ, Resazurin [2, 11]
4 µg/mL: MICRZ, Resazurin ([3]; E. faecalis ATCC 33186, no BPS) | MIC [3, 15]
0.12 µg/mL: MICRZ, Resazurin: +BPS ([2]; S. aureus ATCC 29213) | MIC ([6]; K. pneumoniae Clinical Isolate 858055, 2.5% v/v BPS, read-out: MIC, CLSI: +BPS)
0.015 µg/mL: MICRZ, Resazurin: +BPS ([5]; H. influenzae Clinical Isolate 824704, 2.5% v/v BPS) | MICRZ, Resazurin ([5]; H. influenzae Clinical Isolate 824704, no BPS) | MIC ([5]; H. influenzae Clinical Isolate 824704, 2.5% v/v BPS, read-out: MIC, CLSI: +BPS) | MIC ([5]; H. influenzae Clinical Isolate 824704, no BPS, read-out: MIC, CLSI) | MICRZ, Resazurin ([7]; no BPS)
1 µg/mL: MICRZ, Resazurin: +BPS [3, 12] | MICRZ, Resazurin ([3]; E. faecalis ATCC 29212, no BPS) | MIC ([3]; ATCC29212, E. faecalis ATCC 29212, 2.5% v/v BPS, read-out: MIC, CLSI: +BPS) | MIC [3, 14] | MIC ([3]; ATCC33186, E. faecalis ATCC 33186, 2.5% v/v BPS, read-out: MIC, CLSI: +BPS) | MIC [4, 16] | MIC [4, 17] | MIC [4, 18] | MIC [4, 19] | MIC [4, 20] | MIC [4, 21] | MICRZ, Resazurin: +BPS ([6]; K. pneumoniae ATCC 700603, 2.5% v/v BPS) | MICRZ, Resazurin ([6]; K. pneumoniae ATCC 700603, no BPS) | MIC ([6]; ATCC700603, K. pneumoniae ATCC 700603, 2.5% v/v BPS, read-out: MIC, CLSI: +BPS) | MIC ([6]; ATCC700603, K. pneumoniae ATCC 700603, no BPS, read-out: MIC, CLSI)
2 µg/mL: MICRZ, Resazurin: +BPS [3, 13]
0.06 µg/mL: MICRZ, Resazurin: +BPS [1, 9] | MICRZ, Resazurin [1, 9] | MICRZ, Resazurin: +BPS [1, 10] | MICRZ, Resazurin [1, 10] | MIC [1, 9] | MICRZ, Resazurin: +BPS ([6]; K. pneumoniae Clinical Isolate 858055, 2.5% v/v BPS) | MICRZ, Resazurin ([6]; K. pneumoniae Clinical Isolate 858055, no BPS) | MIC ([6]; K. pneumoniae Clinical Isolate 858055, no BPS, read-out: MIC, CLSI)
0.03 µg/mL: MICRZ, Resazurin: +BPS ([5]; H. influenzae ATCC 49247, 2.5% v/v BPS) | MICRZ, Resazurin ([5]; H. influenzae ATCC 49247, no BPS) | MIC ([5]; ATCC49247, H. influenzae ATCC 49247, 2.5% v/v BPS, read-out: MIC, CLSI: +BPS) | MIC ([5]; ATCC49247, H. influenzae ATCC 49247, no BPS, read-out: MIC, CLSI) | MICRZ, Resazurin: +BPS ([7]; 2.5% v/v BPS)

CCCCCCCCCC(=O)N[C@@H](Cc1c[nH]c2ccccc12)C(=O)N[C@H](CC(N)=O)C(=O)N[C@@H](CC(=O)O)C(=O)N[C@@H]1C(=O)NCC(=O)N[C@@H](CCCN)C(=O)N[C@@H](CC(=O)O)C(=O)N[C@H](C)C(=O)N[C@@H](CC(=O)O)C(=O)NCC(=O)N[C@H](CO)C(=O)N[C@@H]([C@H](C)CC(=O)O)C(=O)N[C@@H](CC(=O)c2ccccc2N)C(=O)O[C@@H]1C [Daptomycin]
0.5 µg/mL: MICRZ, Resazurin ([2]; S. aureus ATCC 29213)
8 µg/mL: MICRZ, Resazurin [1, 9] | MICRZ, Resazurin [1, 10] | MIC [1, 9]
0.25 µg/mL: MICRZ, Resazurin [2, 11] | MIC [4, 17] | MIC [4, 19] | MIC [4, 21]
16 µg/mL: MIC [4, 16] | MIC [4, 18] | MIC [4, 20]
2 µg/mL: MICRZ, Resazurin ([3]; E. faecalis ATCC 29212, no BPS) | MIC [3, 14]
> 16 µg/mL: MIC [8]
1 µg/mL: MICRZ, Resazurin ([3]; E. faecalis ATCC 33186, no BPS) | MIC [3, 15]
>16 µg/mL: MICRZ, Resazurin: +BPS [1, 9] | MICRZ, Resazurin: +BPS [1, 10] | MICRZ, Resazurin: +BPS ([2]; S. aureus ATCC 29213) | MICRZ, Resazurin: +BPS [2, 11] | MICRZ, Resazurin: +BPS [3, 12] | MICRZ, Resazurin: +BPS [3, 13]
